Consider 1 compound from ChEMBL document CHEMBL4765263, “Design, synthesis, biological evaluation of 6-(2-amino-1H-benzo[d]imidazole-6-yl)quinazolin-4(3H)-one derivatives as novel anticancer agents with Aurora kinase inhibition” (Eur J Med Chem, 2020).

Activity calls are given as the source filed them. The rule behind the calls is not given here.

Assay [1] concerns MDA-MB-231. In words: Induction of cell cycle arrest in human MDA-MB-231 cells assessed as increase G2/M phase accumulation incubated for 24 hrs by PI staining based flow cytometry analysis. Format: functional. Particulars: dose 1-4 µM.
In assay [2] the test system is MDA-MB-231. Description: Induction of apoptosis in human MDA-MB-231 cells assessed as early apoptotic cells at 4 uM incubated for 48 hrs by annexin V-FITC and PI staining based flow cytometry analysis (reference value: 3.90 %). Format: functional.
Assay [3] concerns MDA-MB-231. In words: Cytotoxicity against human MDA-MB-231 cells assessed as cell shrinkage at >1 uM incubated for 48 hrs. The note with it: dose microM >1, time 48.0 hrs. It counts as functional, cell-based.
The test system of assay [4] is MDA-MB-231. In words: Induction of apoptosis in human MDA-MB-231 cells assessed as late apoptotic cells at 2 uM incubated for 48 hrs by annexin V-FITC and PI staining based flow cytometry analysis (reference value: 2.52 %). It counts as functional.
The test system of assay [5] is MDA-MB-231. Description: Cytotoxicity against human MDA-MB-231 cells assessed as cell blebbing at >1 uM incubated for 48 hrs. Format: functional, cell-based. Particulars: dose microM >1, time 48.0 hrs.
Assay [6] deals with Aurora kinase B (Homo sapiens, UniProt Q96GD4). In words: Inhibition of Aurora B (unknown origin) incubated for 1 hrs by HTRF assay. (In general: TR-FRET usually uses a lanthanide donor and a delayed reading to cut background.)
Sequence of Aurora kinase B (Q96GD4 whole entry): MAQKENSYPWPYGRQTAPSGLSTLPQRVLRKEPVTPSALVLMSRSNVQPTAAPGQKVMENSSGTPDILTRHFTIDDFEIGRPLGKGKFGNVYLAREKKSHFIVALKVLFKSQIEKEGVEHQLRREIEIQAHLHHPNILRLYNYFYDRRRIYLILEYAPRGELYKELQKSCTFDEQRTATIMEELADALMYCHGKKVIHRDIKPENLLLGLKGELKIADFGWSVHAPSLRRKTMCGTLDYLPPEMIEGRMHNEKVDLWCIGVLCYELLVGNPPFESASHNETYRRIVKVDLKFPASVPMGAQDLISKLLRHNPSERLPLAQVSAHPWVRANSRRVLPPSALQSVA
The subject of assay [7] is MDA-MB-231. Description: Induction of apoptosis in human MDA-MB-231 cells. It counts as functional, cell-based. Particulars: dose 1-4 µM.
For assay [8], the system named is MDA-MB-231. Description: Induction of cell cycle arrest in human MDA-MB-231 cells assessed as S phase accumulation at 2 uM incubated for 24 hrs by PI staining based flow cytometry analysis (reference value: 38.65 %). It counts as functional. (Flow cytometry measures light scatter and fluorescence of single cells or particles in a stream.)
The subject of assay [9] is MDA-MB-231. In words: Induction of cell cycle arrest in human MDA-MB-231 cells assessed as G0/G1 phase accumulation at 1 uM incubated for 24 hrs by PI staining based flow cytometry analysis (reference value: 42.84 %). Format: functional.
For assay [10], the system named is MDA-MB-231. Description: Induction of cell cycle arrest in human MDA-MB-231 cells assessed as G2/M phase accumulation at 1 uM incubated for 24 hrs by PI staining based flow cytometry analysis (reference value: 16.62 %). It counts as functional.
Assay [11] relates to MDA-MB-231. In words: Induction of apoptosis in human MDA-MB-231 cells assessed as early apoptotic cells at 1 uM incubated for 48 hrs by annexin V-FITC and PI staining based flow cytometry analysis (reference value: 3.90 %). It counts as functional.

Regarding `CCC(=O)Nc1nc2ccc(-c3ccc4ncn(CCN5CCOCC5)c(=O)c4c3)cc2[nH]1`, the Activity result was “Dose-dependent effect” in assay [1]; 15.33% in assay [2]; 8.25% in assay [4]; “Dose-dependent effect” in assay [7]; 25.43% in assay [8]; 36.36% in assay [9]. The Activity was 21.84% in assay [10] and 4.27% in assay [11]. Moreover, the outcome in assay [3] and in assay [5] was Active. Besides, the IC50 in assay [6] was 0.273 µM.

A word on the IC50: it is the concentration that gives 50% inhibition.
